What is called IC50 is the concentration that gives 50% inhibition. Read a high IC50 as weaker potency in that assay.

Molecules are shown by their SMILES. Bounds are passed on as bounds.

What all share (type): biochemical
The target in assay [1] is T1, PDGFRβ kinase (Homo sapiens, UniProt P09619).
T1 construct: purchased Invitrogen Inc. P3082
In words: In vitro PDGFRβ kinase assay. Here is the method:
(§1) In Vitro VEGFR2 and PDGFRP Kinase Assays
(§2) 2.5 μl of ADP Quest assay buffer (DiscoverX Inc., cat. #90-0071) containing 20 ng VEGFR2 kinase (Invitrogen Inc, cat. #PV3660) or 25 ng PDGFRβ kinase (Invitrogen Inc., cat. #P3082) is dispensed to wells of a 1536 multi-well, black solid plate. 60 nl of 100× concentration of test compound in DMSO is dispensed to the well by passive pin transfer and incubated for 10 minutes at room temperature (approx. 22° C.). 2.5 μl of ADP Quest assay buffer containing 0.25 μg of poly Glu:Tyr (4:1) substrate peptide (Upstate Inc., cat. #12-440) and 60 μM ATP is then dispensed and the kinase reaction allowed to incubate at 30° C. for 2 hours. The assay plates are sealed and maintained in a humidified environment. After the 2 hour incubation, 2 μl of ADP Quest assay reagent A, followed by 2 μl of assay reagent B, is added. After an additional 30 minute incubation at room temperature, fluorescence intensity is measured on a Molecular Devices Aquest multi-mode plate reader or other suitable plate reader (fluorescence excitation filter: 530/25 [Peak(nm)/FWHM passband(nm)]; dichroic beamsplitter: 561 nm longpass; fluorescence emission filter: 580/10 [Peak(nm)/FWHM passband(nm)]. The assay measures the conversion of a non-fluoresecent molecule to fluorescent resorufin, which correlates with kinase activity. Negative control activity is measured with DMSO lacking any test compound. The positive control is [N-(3-trifluoromethyl-4-chlorophenyl)-N′-(4-(2-methylcarbamoyl-pyridin-4-yl)oxyphenyl)urea], aka Bay 43-9006. Efficacy is measured as a percentage of positive control activity.

For assay [2], the target named is T2, human B-Raf protein kinase (Homo sapiens, UniProt P15056).
T2 construct: GST (N); purchased Upstate Inc. 14-530 (B-Raf); 14-420 (Mek1)
T2 sequence (P15056 416-766): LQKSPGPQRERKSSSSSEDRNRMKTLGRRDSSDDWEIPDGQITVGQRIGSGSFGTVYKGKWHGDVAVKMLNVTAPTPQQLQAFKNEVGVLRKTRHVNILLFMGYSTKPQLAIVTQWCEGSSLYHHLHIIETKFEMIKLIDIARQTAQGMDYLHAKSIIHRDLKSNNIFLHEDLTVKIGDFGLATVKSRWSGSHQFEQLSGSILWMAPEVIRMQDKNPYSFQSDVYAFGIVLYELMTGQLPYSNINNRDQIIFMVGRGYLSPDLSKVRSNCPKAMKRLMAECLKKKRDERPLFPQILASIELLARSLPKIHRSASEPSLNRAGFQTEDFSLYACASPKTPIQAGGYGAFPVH
In words: In vitro B-Raf/Mek1 composite kinase assay. Here is the method:
In Vitro B-Raf/Mek1 Composite Kinase Assay
2.5 μl of B-Raf kinase buffer (20 mM MOPS [pH 7.2], 25 mM sodium glycerophosphate, 2 mM EGTA [pH 8.0], 1 mM sodium orthovanadate, 1 mM dithiothreitol, 10 mM MgCl2, 0.03% Brij-35, 0.3 mg/ml bovine serum albumin) containing lng of recombinant, N-terminal GST-tagged human B-Raf protein kinase (Δ1-415, Upstate Inc., cat. #14-530) is dispensed to wells of a 1536 multi-well white solid plate. 60 nl of 100× concentration of test compound in DMSO is dispensed to the well by passive pin transfer and incubated for 15 minutes at room temperature (approx. 22° C.). […] The assay plates are sealed and maintained in a humidified environment. After 2 hours, 2.5 μl of PKLight protein kinase assay reagent (Cambrex, cat. #LT07-501) is dispensed. After an additional 5 minute incubation at room temperature, luminescence activity is measured on a Molecular Devices Analyst multi-mode plate reader or other suitable plate reader. Kinase inhibition results in less ATP depletion, and therefore increased luminescence signal. Negative control activity is measured with DMSO lacking any test compound. The positive control is [N-(3-trifluoromethyl-4-chlorophenyl)-N′-(4-(2-methylcarbamoyl-pyridin-4-yl)oxyphenyl)urea], aka Bay 43-9006. Efficacy is measured as a percentage of positive control activity.

The target in assay [3] is T3, VEGFR2 kinase (Homo sapiens, UniProt P35968).
T3 construct: purchased Invitrogen Inc PV3660
T3 sequence (P35968 20-1356): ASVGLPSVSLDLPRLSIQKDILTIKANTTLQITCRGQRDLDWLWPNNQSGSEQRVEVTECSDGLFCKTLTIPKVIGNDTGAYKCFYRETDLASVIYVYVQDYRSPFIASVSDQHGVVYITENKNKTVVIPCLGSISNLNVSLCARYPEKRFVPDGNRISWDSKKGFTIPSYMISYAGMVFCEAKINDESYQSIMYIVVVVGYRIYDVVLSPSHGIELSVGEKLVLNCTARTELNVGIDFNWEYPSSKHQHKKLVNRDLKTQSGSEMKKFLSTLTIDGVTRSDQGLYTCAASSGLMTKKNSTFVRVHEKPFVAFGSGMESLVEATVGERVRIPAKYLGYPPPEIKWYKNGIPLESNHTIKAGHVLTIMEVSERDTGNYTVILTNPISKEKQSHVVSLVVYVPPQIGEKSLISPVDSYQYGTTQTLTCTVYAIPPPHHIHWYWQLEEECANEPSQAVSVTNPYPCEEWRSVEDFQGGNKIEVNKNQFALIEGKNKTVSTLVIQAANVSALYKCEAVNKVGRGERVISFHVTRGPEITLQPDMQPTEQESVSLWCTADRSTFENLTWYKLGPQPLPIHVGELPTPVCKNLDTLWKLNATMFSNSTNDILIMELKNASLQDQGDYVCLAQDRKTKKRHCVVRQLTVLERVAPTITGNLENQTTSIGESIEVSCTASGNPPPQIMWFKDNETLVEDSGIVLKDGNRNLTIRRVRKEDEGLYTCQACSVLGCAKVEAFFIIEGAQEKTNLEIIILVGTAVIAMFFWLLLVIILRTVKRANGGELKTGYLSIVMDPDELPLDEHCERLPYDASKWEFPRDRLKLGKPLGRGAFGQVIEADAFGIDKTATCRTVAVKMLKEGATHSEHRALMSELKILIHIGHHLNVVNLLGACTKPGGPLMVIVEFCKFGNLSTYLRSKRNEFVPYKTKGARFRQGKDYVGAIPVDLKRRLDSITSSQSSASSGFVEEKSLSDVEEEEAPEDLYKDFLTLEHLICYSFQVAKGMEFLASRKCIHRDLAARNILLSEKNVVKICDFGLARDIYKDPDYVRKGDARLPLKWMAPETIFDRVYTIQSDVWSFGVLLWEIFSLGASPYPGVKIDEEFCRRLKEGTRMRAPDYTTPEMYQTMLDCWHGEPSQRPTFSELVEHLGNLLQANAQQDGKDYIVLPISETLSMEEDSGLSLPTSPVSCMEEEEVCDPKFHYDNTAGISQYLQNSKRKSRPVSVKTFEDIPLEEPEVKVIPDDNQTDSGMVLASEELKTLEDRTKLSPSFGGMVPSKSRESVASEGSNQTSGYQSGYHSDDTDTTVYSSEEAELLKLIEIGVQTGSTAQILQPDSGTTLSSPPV
In words: In vitro VEGFR2 kinase assay. As for the experimental part: as §1, §2

T1 sequence (P09619 33-1106): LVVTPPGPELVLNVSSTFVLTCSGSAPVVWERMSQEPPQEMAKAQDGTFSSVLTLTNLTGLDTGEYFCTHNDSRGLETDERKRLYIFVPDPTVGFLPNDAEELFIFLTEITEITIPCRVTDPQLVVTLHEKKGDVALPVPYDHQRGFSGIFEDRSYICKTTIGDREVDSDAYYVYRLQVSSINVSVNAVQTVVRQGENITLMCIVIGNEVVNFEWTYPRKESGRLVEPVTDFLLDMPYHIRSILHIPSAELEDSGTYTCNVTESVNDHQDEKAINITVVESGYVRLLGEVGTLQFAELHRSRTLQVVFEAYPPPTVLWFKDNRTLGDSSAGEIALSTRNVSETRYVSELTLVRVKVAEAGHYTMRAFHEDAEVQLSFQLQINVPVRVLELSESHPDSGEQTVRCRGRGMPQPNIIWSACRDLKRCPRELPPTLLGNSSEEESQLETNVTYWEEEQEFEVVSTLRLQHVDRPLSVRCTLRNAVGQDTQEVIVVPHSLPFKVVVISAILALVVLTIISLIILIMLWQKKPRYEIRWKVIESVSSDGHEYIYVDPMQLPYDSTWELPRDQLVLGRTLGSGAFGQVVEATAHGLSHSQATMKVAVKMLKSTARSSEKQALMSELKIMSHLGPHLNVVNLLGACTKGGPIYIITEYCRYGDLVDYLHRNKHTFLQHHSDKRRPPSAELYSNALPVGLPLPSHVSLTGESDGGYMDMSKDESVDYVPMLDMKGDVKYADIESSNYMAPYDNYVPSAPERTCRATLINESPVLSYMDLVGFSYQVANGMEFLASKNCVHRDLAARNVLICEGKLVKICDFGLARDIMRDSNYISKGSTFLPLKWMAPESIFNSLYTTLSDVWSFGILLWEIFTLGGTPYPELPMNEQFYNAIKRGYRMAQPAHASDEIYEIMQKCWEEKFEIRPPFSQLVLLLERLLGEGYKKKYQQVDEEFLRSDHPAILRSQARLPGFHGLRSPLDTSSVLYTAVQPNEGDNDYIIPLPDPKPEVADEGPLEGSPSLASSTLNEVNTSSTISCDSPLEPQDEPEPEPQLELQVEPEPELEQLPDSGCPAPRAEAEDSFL

As for `Cn1cc(-c2cc(Oc3cccc(NC(=O)c4ccc(Oc5ccccc5)cc4)c3)ccn2)cn1` [Example 56, N-(3-(2-(1-Methyl-1H-pyrazol-4-yl)pyridin-4-yloxy)phenyl)-4-phenoxybenzamide], the IC50 in assay [1] was greater than 10 µM; in assay [2], no more than 10 µM; in assay [3] it was no more than 10 µM.

Consider `CCCOc1cccc(C(=O)Nc2cccc(Oc3ccnc(-c4cnn(C)c4)c3)c2)c1` [Example 73, N-(3-(2-(1-Methyl-1H-pyrazol-4-yl)pyridin-4-yloxy)phenyl)-3-propoxybenzamide], for which the IC50 in assay [1], in assay [2] and in assay [3] was greater than 10 µM throughout.

`Cn1cc(-c2cc(Oc3cccc(NC(=O)c4ccc5[nH]ccc5c4)c3)ccn2)cn1` [Example 70, N-(3-(2-(1-Methyl-1H-pyrazol-4-yl)pyridin-4-yloxy)phenyl)-1H-indole-5-carboxamide]: the IC50 in assay [1] is greater than 10 µM; in assay [2] it was no more than 10 µM; in assay [3], no more than 10 µM.

On to `Cn1cc(-c2cc(Oc3cccc(NC(=O)c4ccc(-n5cccc5)cc4)c3)ccn2)cn1` [Example 59, N-(3-(2-(1-Methyl-1H-pyrazol-4-yl)pyridin-4-yloxy)phenyl)-4-(1H-pyrrol-1-yl)benzamide], for which the IC50 is greater than 10 µM in assay [1], no more than 10 µM in assay [2] and greater than 10 µM in assay [3].

For the molecule `Cn1cc(-c2cc(Oc3cccc(NC(=O)c4ccc5[nH]cnc5c4)c3)ccn2)cn1` [Example 64, N-(3-(2-(1-Methyl-1H-pyrazol-4-yl)pyridin-4-yloxy)phenyl)-1H-benzo[d]imidazole-5-carboxamide], the IC50 in assay [1] was greater than 10 µM; in assay [2], no more than 10 µM; in assay [3], no more than 10 µM.

With `Cn1cc(-c2cc(Oc3cccc(NC(=O)c4ccccc4-n4cccc4)c3)ccn2)cn1` [Example 57, N-(3-(2-(1-Methyl-1H-pyrazol-4-yl)pyridin-4-yloxy)phenyl)-2-(1H-pyrrol-1-yl)benzamide], the IC50 in assay [1], in assay [2] and in assay [3] was no more than 10 µM throughout.

In the case of `Cn1cc(-c2cc(Oc3cccc(NC(=O)c4cccc(-n5cccc5)c4)c3)ccn2)cn1` [Example 58, N-(3-(2-(1-Methyl-1H-pyrazol-4-yl)pyridin-4-yloxy)phenyl)-3-(1H-pyrrol-1-yl)benzamide], the IC50 in assay [1], in assay [2] and in assay [3] was greater than 10 µM throughout.

`Cn1cc(-c2cc(Oc3cccc(NC(=O)c4ccc5occc5c4)c3)ccn2)cn1` [Example 66, N-(3-(2-(1-Methyl-1H-pyrazol-4-yl)pyridin-4-yloxy)phenyl)benzofuran-5-carboxamide]: the IC50 in assay [1], in assay [2] and in assay [3] was greater than 10 µM throughout.

With `Cn1cc(-c2cc(Oc3cccc(NC(=O)c4ccc(C#N)cc4)c3)ccn2)cn1` [Example 47, 4-Cyano-N-(3-(2-(1-methyl-1H-pyrazol-4-yl)pyridin-4-yloxy)phenyl)benzamide], the IC50 was greater than 10 µM in assay [1], no more than 10 µM in assay [2] and greater than 10 µM in assay [3].

As to `Cn1cc(-c2cc(Oc3cccc(NC(=O)c4cccc(C(F)(F)F)c4)c3)ccn2)cn1` [Example 44, N-(3-(2-(1-Methyl-1H-pyrazol-4-yl)pyridin-4-yloxy)phenyl)-3-(trifluoromethyl)benzamide], the IC50 in assay [1], in assay [2] and in assay [3] was greater than 10 µM in each case.

For the molecule `Cn1cc(-c2cc(Oc3cccc(NC(=O)c4ccccc4OC(F)(F)F)c3)ccn2)cn1` [Example 39, N-(3-(2-(1-Methyl-1H-pyrazol-4-yl)pyridin-4-yloxy)phenyl)-2-(trifluoromethoxy)benzamide], the concentration for half-maximal inhibition (IC50) in assay [1] is greater than 10 µM; in assay [2], no more than 10 µM; in assay [3] it was greater than 10 µM.

As to `Cn1cc(-c2cc(Oc3cccc(NC(=O)c4cccc(-c5cccnc5)c4)c3)ccn2)cn1` [Example 33, N-(3-(2-(1-Methyl-1H-pyrazol-4-yl)pyridin-4-yloxy)phenyl)-3-(pyridin-3-yl)benzamide], the IC50 in assay [1] is greater than 10 µM; in assay [2] it was greater than 10 µM; in assay [3] it was no more than 10 µM.

Regarding `Cn1cc(-c2cc(Oc3cccc(NC(=O)c4cccc(-c5ccncc5)c4)c3)ccn2)cn1` [Example 34, N-(3-(2-(1-Methyl-1H-pyrazol-4-yl)pyridin-4-yloxy)phenyl)-3-(pyridin-4-yl)benzamide], the IC50 in assay [1], in assay [2] and in assay [3] was greater than 10 µM throughout.

Regarding `Cn1cc(-c2cc(Oc3cccc(NC(=O)c4ccc(C(=O)c5ccccc5)cc4)c3)ccn2)cn1` [Example 51, 4-Benzoyl-N-(3-(2-(1-methyl-1H-pyrazol-4-yl)pyridin-4-yloxy)phenyl)benzamide], the results for the IC50 in assay [1], in assay [2] and in assay [3] were greater than 10 µM, no more than 10 µM and no more than 10 µM, respectively.

For the molecule `Cn1cc(-c2cc(Oc3cccc(NC(=O)c4cncc(-n5cccc5)c4)c3)ccn2)cn1` [Example 35, N-(3-(2-(1-Methyl-1H-pyrazol-4-yl)pyridin-4-yloxy)phenyl)-5-(1H-pyrrol-1-yl)nicotinamide], the concentration for half-maximal inhibition (IC50) in assay [1], in assay [2] and in assay [3] was greater than 10 µM throughout.

With `Cn1cc(-c2cc(Oc3cccc(NC(=O)c4cccc(OC(F)(F)F)c4)c3)ccn2)cn1` [Example 40, N-(3-(2-(1-Methyl-1H-pyrazol-4-yl)pyridin-4-yloxy)phenyl)-3-(trifluoromethoxy)benzamide], the IC50 in assay [1], in assay [2] and in assay [3] was greater than 10 µM in each case.

For the molecule `CC(C#N)c1cccc(C(=O)Nc2cccc(Oc3ccnc(-c4cnn(C)c4)c3)c2)c1` (racemic) [Example 48, (±)-3-(1-Cyanoethyl)-N-(3-(2-(1-methyl-1H-pyrazol-4-yl)pyridin-4-yloxy)phenyl)benzamide], the IC50 in assay [1], in assay [2] and in assay [3] was greater than 10 µM in each case.

Consider `CCOc1cccc(C(=O)Nc2cccc(Oc3ccnc(-c4cnn(C)c4)c3)c2)c1` [Example 72, 3-Ethoxy-N-(3-(2-(1-methyl-1H-pyrazol-4-yl)pyridin-4-yloxy)phenyl)benzamide], for which the IC50 in assay [1], in assay [2] and in assay [3] was no more than 10 µM in each case.

For the molecule `Cn1cc(-c2cc(Oc3cccc(NC(=O)c4cccc(Oc5ccccc5)c4)c3)ccn2)cn1` [Example 55, N-(3-(2-(1-Methyl-1H-pyrazol-4-yl)pyridin-4-yloxy)phenyl)-3-phenoxybenzamide], the IC50 in assay [1] is greater than 10 µM; in assay [2] it was greater than 10 µM; in assay [3], no more than 10 µM.

For the molecule `Cn1cc(-c2cc(Oc3cccc(NC(=O)c4cccc5[nH]ccc45)c3)ccn2)cn1` [Example 69, N-(3-(2-(1-Methyl-1H-pyrazol-4-yl)pyridin-4-yloxy)phenyl)-1H-indole-4-carboxamide], the IC50 in assay [1] is greater than 10 µM; in assay [2], no more than 10 µM; in assay [3] it was no more than 10 µM.

As to `Cn1cc(-c2cc(Oc3cccc(NC(=O)c4cccc(-c5ccccn5)c4)c3)ccn2)cn1` [Example 32, N-(3-(2-(1-Methyl-1H-pyrazol-4-yl)pyridin-4-yloxy)phenyl)-3-(pyridin-2-yl)benzamide], the IC50 in assay [1], in assay [2] and in assay [3] was greater than 10 µM throughout.

For the molecule `O=C(Nc1cccc(Oc2ccnc(-c3nnco3)c2)c1)c1ccc(Oc2ccccc2)cc1` [Example 5, N-(3-(2-(1,3,4-Oxadiazol-2-yl)pyridin-4-yloxy)phenyl)-4-phenoxybenzamide], the IC50 in assay [1] was greater than 10 µM; in assay [2], greater than 10 µM; in assay [3], no more than 10 µM.

Values taken from patent publication US20070155746A1, “NOVEL SUBSTITUTED PYRIDINYLOXY AND PYRIMIDINYLOXY AMIDES USEFUL AS INHIBITORS OF PROTEIN KINASES” (KALYPSYS, INC., priority 2005, published 2007).
